These results are taken from patent US20260240846A1, “ZAK ALPHA KINASE (MAP3K20) INHIBITORS FOR USE IN THE TREATMENT OF ANEMIA” (UNIVERSIDAD DE MURCIA, priority 2023, published 2026).

The structures appear in SMILES notation.

Assay [1] has as its system zebrafish larvae. As to the kind of experiment: Chemical treatment of zebrafish larvae by bath immersion; counting of neutrophils and erythrocytes. In kind it is in vivo, Zebrafish (Danio rerio H.). The protocol: FIG. 3. ZAKα regulates hematopoiesis in zebrafish through the Nlrp1 inflammasome. Number of neutrophils (B, D, H), erythrocytes (F) and macrophages (J), and caspase-1 activity (K) in 2 dpf larvae either treated from 1 to 2 dpf by bath immersion with 1 μM nilotinib and/or 100 μM anisomycin (A-D) or obtained by injecting one-cell stage embryos with standard or zaka crRNAs/Cas9 complexes (E-K). Representative images of neutrophils (A, C, G), erythrocytes (E) and macrophages (I) are also shown. Each dot represents one individual and the mean±SEM for each group is also shown. P values were calculated using one-way ANOVA and Tukey's multiple range test (B) or Student's t-test (D, F, H, J, K). n.s., non-significant; *P<0.05; **P<0.01; ***P<0.001.
FIG. 6. NLRP1 is activated by phosphorylation of the linker domain after activation of ZAKα and pharmacological inhibition of this signaling pathway promotes erythropoiesis in DBA. (A-D) Number of neutrophils (A-C), and caspase-1 activity (D) in 2 dpf larvae obtained by injection of one-cell stage embryos with human NLRP1 (wild type-WT, S107A and S107D) and treated from 1 to 2 dpf by bath immersion with 1 μM nilotinib (B-D). Representative images of neutrophils (arrows) are also shown in C. (E, F) BMMCs from a DBA patient were incubated for 2 weeks in human methylcellulose complete medium at 37° C. in the presence or absence of the indicated concentrations of nilotinib, and colonies were counted using standard morphological criteria. Each dot represents one individual and the mean±SEM for each group is also shown. P values were calculated by one-way ANOVA and Tukey's multiple range test. n.s., non-significant; *P<0.05; **P<0.01; ***P<0.001; ****P<0.0001.
FIG. 10. Imatinib and dasatinib promote erythropoiesis in human and zebrafish. (A) K562 cells were pretreated with the indicated concentrations of nilotinib, imatinib or dasatinib for 24 h and then differentiated with 50 μM hemin for 24 h. The amounts of NLRP1, GATA1, phosphorylated P38, total ZAKα and ACTB were then evaluated by western blot. (B) Zebrafish larvae were treated from 1 to 2 dpf with the indicated concentrations of nilotinib, imatinib or dasatinib. Representative images and number of neutrophils in larvae of 2 dpf treated by bath immersion with the indicated concentrations of imatinib and dasatinib. Each dot represents one individual and the mean±SEM for each group is also shown. P values were calculated by one-way ANOVA and Tukey's multiple range test. n.s., non-significant. ***P<0.001; ****P<0.0001.
FIG. 11. Ponatinib and bosutinib promote erythropoiesis in human and zebrafish. (A) K562 cells were pretreated with the indicated concentrations of nilotinib, ponatinib and bosutinib for 24 h and then differentiated with 50 μM hemin for the indicated times. The amounts of NLRP1, total ZAKα, GATA1, phosphorylated P38 and ACTB were then evaluated by western blot. (B) Number of neutrophils in larvae of 2 dpf treated by bath immersion with the indicated concentrations of ponatinib and bosutinib. Each dot represents one individual and the mean±SEM for each group is also shown. P values were calculated by one-way ANOVA and Tukey's multiple range test. n.s., non-significant, *P<0.05. **P<0.01. ***P<0.001.
Zebrafish (Danio rerio H.) were obtained from the Zebrafish International Resource Center and mated, staged, raised and processed as described in The Zebarfish Book. The lines Tg(mpx:eGFP)^t114, Tg(lyz:DsRED2)^n250, Tg(mfap4:mCherry)^ump6, Tg(gata1a:DsRed)^sd2 Tg(runx1:GAL4)^utn6), Tg(UAS-E1B:NTR-mCherry) and casper (mitfa^w2/w2; mpv17^a9/a9) were previously described. spint1a^hi2217Tg/hi2217Tg was isolated from insertional mutagenesis screens. The experiments performed comply with the Guidelines of the European Union Council (Directive 2010/63/EU) and the Spanish RD 53/2013. The experiments and procedures performed were approved by the Bioethical Committees of the University of Murcia (approval number #669/2020). […]

For assay [2], the target named is ZAKα (Homo sapiens, UniProt Q9NYL2). The conditions noted are these: cited from earlier work.
ZAKα, sequence (Q9NYL2 whole entry): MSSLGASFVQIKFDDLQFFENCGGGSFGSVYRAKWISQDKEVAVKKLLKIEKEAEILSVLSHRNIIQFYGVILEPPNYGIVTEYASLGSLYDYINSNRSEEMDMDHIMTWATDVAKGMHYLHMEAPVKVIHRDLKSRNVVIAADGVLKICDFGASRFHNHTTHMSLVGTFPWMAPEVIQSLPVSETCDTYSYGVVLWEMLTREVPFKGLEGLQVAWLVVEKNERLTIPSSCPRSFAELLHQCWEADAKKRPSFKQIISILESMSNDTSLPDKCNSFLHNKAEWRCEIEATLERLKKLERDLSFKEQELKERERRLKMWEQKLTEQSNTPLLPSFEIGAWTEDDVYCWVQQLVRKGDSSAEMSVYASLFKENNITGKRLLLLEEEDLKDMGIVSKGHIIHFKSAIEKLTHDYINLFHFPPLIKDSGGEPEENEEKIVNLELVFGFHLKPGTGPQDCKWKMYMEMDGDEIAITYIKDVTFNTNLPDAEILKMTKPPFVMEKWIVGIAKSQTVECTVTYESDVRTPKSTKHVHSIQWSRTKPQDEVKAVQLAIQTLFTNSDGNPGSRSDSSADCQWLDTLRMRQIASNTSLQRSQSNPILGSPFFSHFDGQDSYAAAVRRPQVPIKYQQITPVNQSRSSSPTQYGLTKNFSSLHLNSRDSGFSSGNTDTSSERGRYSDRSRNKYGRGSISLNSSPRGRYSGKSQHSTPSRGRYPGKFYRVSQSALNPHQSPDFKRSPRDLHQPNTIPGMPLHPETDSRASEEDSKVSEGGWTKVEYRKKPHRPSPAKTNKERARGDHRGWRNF

`Cc1cn(-c2cc(NC(=O)c3ccc(C)c(Nc4nccc(-c5cccnc5)n4)c3)cc(C(F)(F)F)c2)cn1` [nilotinib]: the “neutrophilia in the Spint1a-deficient model of neutrophilic inflammation” value in assay [1] (larvae 2 dpf, bath immersion 1 to 2 dpf, 1 μM nilotinib) was “reduced neutrophilia”. In addition, the “neutrophilia induced by NLRP1 with phosphomimetic S107D mutation” value in assay [1] (larvae expressing human NLRP1 S107D, 1 μM nilotinib 1 to 2 dpf) was “failed to reverse”. The “neutrophilia induced by wild type NLRP1” value in assay [1] (larvae expressing human wild type NLRP1, 1 μM nilotinib 1 to 2 dpf) was “able to abrogate”. The erythropoiesis in zebrafish entry in assay [1] (nilotinib (FIGS. 3E and 3F)) was “Promote erythropoiesis in zebrafish”. Also, the neutrophil number entry in assay [1] (wild type larvae 2 dpf, bath immersion 1 to 2 dpf, 1 μM nilotinib, 100 μM anisomycin) is on record as “caused a decrease in neutrophil number”. Besides, the “affinity for ZAKα” value in assay [2] is listed as “high affinity”.
